Measurements reported in US12653191B2, “Active compound combinations” (Bayer Aktiengesellschaft, priority 2020, dated 2026).
Read-outs that look alike come from different tables or passages of the source.

Columns and labels:
Parastagonospora nodorum [1] = assay: in vitro-Test with fungal microorganisms, Method A (tables H1-H4); assay type: cell-based
Experimental: Example: In Vitro-Test with Fungal Microorganisms
Wells of 96-well microtiter plates are filled with 10 μl of a preparation of test compound or compound combination in methanol+emulsifier alkylaryl-polyglycol-ether. Thereafter, the solvent is evaporated in a hood. At the next step, 100 μl of liquid potato dextrose medium is given into each well, that has been amended with an appropriate concentration of spores or mycelium suspension of the test fungus.
With the aid of a photometer, the extinction in all wells is measured at the wavelength of 620 nm.
The microtiter plates are incubated at 20° C. and 85% relative humidity. The inhibition of growth is determined again photometrically 3-5 days after the application. Efficacy is calculated in relation to the untreated control, 0% efficacy means fungal growth as high as in untreated control while 100% efficacy means no fungal growth is measured.
The data in tables A1 to A12, B1 to B14, C1 to C10, D1 to D8, E1 to E8, F1 to F11, G1 to G4, H1 to H4 and I1 to I5 were collected according to Method A. The data in tables A13 to A22, B15 to B18, C11 to C20, E9 to E16, F12 to F15, G5 to G15, H5 to H8, I6 to I11 and J1 to J11 were collected according to Method B.

[2] = system: Colletotrichum lindemuthianum; assay: in vitro-Test with fungal microorganisms, Method A (tables D1-D8); assay type: cell-based; conditions: Colletotrichum lindemuthianum, read-out: Efficacy %
How it was run: (§1)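 First, compound in methanol with alkylaryl-polyglycol-ether was dried down in the plate. Next, spore or mycelium suspension in potato dextrose broth was added and extinction read at 620 nm. After 3-5 days at 20° C, 85% RH, reading was repeated and efficacy scored against untreated wells.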

Cordana musae [3] = assay: in vitro-Test with fungal microorganisms, Method A (tables E1-E8); assay type: cell-based; conditions: Neocordana musae, read-out: Efficacy %
How it was run: as §1

Cordana musae [4] = assay: in vitro-Test with fungal microorganisms, Method B (tables E9-E16); assay type: cell-based; conditions: Neocordana musae, single active, read-out: Efficacy
How it was run: (§2)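 Efficacy, relative to untreated control (0% = growth as in control, 100% = no growth), from photometric growth measurement at 600 nm after 3 to 7 days at 20° C., 85% relative humidity. Compound applied in methanol+emulsifier, solvent evaporated, then spore/mycelium-amended liquid medium added.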

[5] = system: Ustilago segetum var. avenae; assay: in vitro-Test with fungal microorganisms, Method B (tables I6-I11); assay type: cell-based; conditions: read-out: Efficacy %
How it was run: as §2

Alternaria alternate = assay: in vitro-Test with fungal microorganisms, Method A (tables A1-A12); assay type: cell-based, Alternaria alternata; conditions: Alternaria, applied alone, read-out: Efficacy %
How it was run: as §1

Botrytis cinerea [6] = assay: in vitro-Test with fungal microorganisms, Method A (tables B1-B14); assay type: cell-based; conditions: Botrytis cinerea
How it was run: as §1

Cercospora beticola [7] = assay: in vitro-Test with fungal microorganisms, Method A (tables C1-C10); assay type: cell-based
How it was run: as §1

Botrytis cinerea [8] = assay: in vitro-Test with fungal microorganisms, Method B (tables B15-B18); assay type: cell-based; conditions: Botrytis cinerea, read-out: Efficacy %
How it was run: as §2

Fusarium culmorum [9] = assay: in vitro-Test with fungal microorganisms, Method B (tables G5-G15); assay type: cell-based; conditions: Fusarium culmorum, read-out: Efficacy
How it was run: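 Compound in methanol plus alkylaryl-polyglycol-ether emulsifier dried in wells, then liquid medium containing Fusarium culmorum spores or mycelium added. Incubated 3-7 days at 20° C, 85% relative humidity; growth read at 600 nm. Efficacy relative to untreated control (0% equals control growth, 100% none).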

Diaporthe citri [10] = assay: in vitro-Test with fungal microorganisms, Method A (tables F1-F11); assay type: cell-based
How it was run: as §1

Colletotrichum coccodes = assay: in vitro-Test with fungal microorganisms, Method B (tables J1-J11); assay type: cell-based; conditions: Colletotrichum coccodes, read-out: Efficacy %
How it was run: as §2

Alternaria alternata = assay: in vitro-Test with fungal microorganisms, Method B (tables A13-A22); assay type: cell-based; conditions: Alternaria alternata, read-out: Efficacy
How it was run: as §2

Diaporthe citri [11] = assay: in vitro-Test with fungal microorganisms, Method B (tables F12-F15); assay type: cell-based
How it was run: as §2

Cercospora beticola [12] = assay: in vitro-Test with fungal microorganisms, Method B (tables C11-C20); assay type: cell-based; conditions: Cercospora beticola, single compound, read-out: Efficacy %
How it was run: as §2

Fusarium culmorum [13] = assay: in vitro-Test with fungal microorganisms, Method A (tables G1-G4); assay type: cell-based; conditions: alone
How it was run: as §1

Parastagonospora nodorum [14] = assay: in vitro-Test with fungal microorganisms, Method B (tables H5-H8); assay type: cell-based; conditions: Parastagonospora nodorum, read-out: Efficacy
How it was run: as §2

[15] = Diaporthe citri, applied alone, read-out: Efficacy
[16] = Diaporthe citri, single active, read-out: Efficacy

Cc1cc(C)nc(Nc2ccccc2)n1 [(7.005) pyrimethanil, pyrimethanil]
Efficacy (Parastagonospora nodorum [1]; 0.8 ppm): 100%
Efficacy (Parastagonospora nodorum [1]; 20.0 ppm): 100%
inhibition of growth at 0.8 ppm ([2]; single active at 0.8 ppm): 1%
inhibition of growth at 4 ppm ([2]; single active at 4.0 ppm): 0%
inhibition of growth at 20 ppm ([2]; single active at 20.0 ppm): 16%
inhibition of growth at 4 ppm (Cordana musae [3]; mixing partner alone): 24%
inhibition of growth at 20 ppm (Cordana musae [3]; mixing partner alone): 4%
inhibition of growth at 4 ppm (Cordana musae [3]; single substance): 0%
inhibition of growth at 20 ppm (Cordana musae [3]; single substance): 24%
inhibition of growth at 0.8 ppm (Cordana musae [4]; 0.8 ppm): 40%
inhibition of growth at 0.8 ppm ([5]; 0.8 ppm): 18%
inhibition of growth at 4 ppm ([5]; 4 ppm): 42%
inhibition of growth at 20 ppm ([5]; 20 ppm): 49%
inhibition of growth at 4 ppm (Alternaria alternate; 4 ppm): 93%
inhibition of growth at 20 ppm (Alternaria alternate; 20 ppm): 82%
inhibition of growth at 4 ppm (Botrytis cinerea [6]; read-out: Efficacy): 100%
inhibition of growth at 20 ppm (Botrytis cinerea [6]; read-out: Efficacy): 100%
inhibition of growth at 0.8 ppm (Botrytis cinerea [6]; alone, 0.8 ppm, read-out: Efficacy %): 100%
inhibition of growth at 4 ppm (Botrytis cinerea [6]; alone, read-out: Efficacy %): 100%
inhibition of growth at 20 ppm (Botrytis cinerea [6]; alone, read-out: Efficacy %): 100%
Efficacy % (Cercospora beticola [7]; 20.0 ppm): 100%
inhibition of growth at 0.8 ppm (Cercospora beticola [7]; Cercospora beticola, 0.8 ppm alone, read-out: Efficacy %): 10%
inhibition of growth at 0.8 ppm (Cercospora beticola [7]; Cercospora beticola, 0.8 ppm, read-out: Efficacy %): 20%
inhibition of growth at 4 ppm (Cercospora beticola [7]; Cercospora beticola, 4.0 ppm alone, read-out: Efficacy %): 98%
inhibition of growth at 4 ppm (Cercospora beticola [7]; Cercospora beticola, 4.0 ppm, read-out: Efficacy %): 100%
inhibition of growth at 0.8 ppm (Botrytis cinerea [8]; 0.8 ppm alone): 89%
inhibition of growth at 4 ppm (Botrytis cinerea [8]; 4 ppm alone): 95%
inhibition of growth at 0.8 ppm (Fusarium culmorum [9]; alone): 5%
inhibition of growth at 0.8 ppm (Fusarium culmorum [9]; single active compound): 8%
inhibition of growth at 4 ppm (Fusarium culmorum [9]; single active compound, 4 ppm): 16%
inhibition of growth at 20 ppm (Fusarium culmorum [9]; single active compound, 20 ppm): 24%
inhibition of growth at 4 ppm (Diaporthe citri [10]; [15]): 97%
inhibition of growth at 20 ppm (Diaporthe citri [10]; [15]): 100%
inhibition of growth at 0.8 ppm (Diaporthe citri [10]; Diaporthe citri, single active, 0.8 ppm, read-out: Efficacy): 0%
inhibition of growth at 4 ppm (Diaporthe citri [10]; [16]): 97%
inhibition of growth at 20 ppm (Diaporthe citri [10]; [16]): 100%
inhibition of growth at 0.8 ppm (Colletotrichum coccodes; single active compound at 0.8 ppm): 25%
inhibition of growth at 0.8 ppm (Alternaria alternata): 96%
inhibition of growth at 0.8 ppm (Alternaria alternata; single compound): 96%
inhibition of growth at 20 ppm (Alternaria alternata; single compound, 20 ppm): 100%

Fc1ccc(Oc2ccnc3cc(Cl)cc(Cl)c23)cc1 [(13.005) quinoxyfen, quinoxyfen]
Efficacy (Diaporthe citri [11]; Table F13, 0.08 ppm alone): 0%
Efficacy (Diaporthe citri [11]; Table F13, 2 ppm alone): 24%
Efficacy (Diaporthe citri [11]; Table F15, 0.4 ppm alone): 0%
Efficacy (Diaporthe citri [11]; Table F15, 2 ppm alone): 13%
Efficacy (Diaporthe citri [11]; Table F15, 10 ppm alone): 76%
inhibition of growth at 0.08 ppm ([2]; mixing partner alone, 0.08 ppm): 0%
inhibition of growth at 0.4 ppm ([2]; mixing partner alone, 0.4 ppm): 0%
inhibition of growth at 2 ppm ([2]; mixing partner alone, 2.0 ppm): 0%
inhibition of growth at 0.08 ppm ([2]; single active at 0.08 ppm): 1%
inhibition of growth at 0.4 ppm ([2]; single active at 0.4 ppm): 0%
inhibition of growth at 2 ppm ([2]; single active at 2.0 ppm): 0%
inhibition of growth at 10 ppm ([2]; single active at 10.0 ppm): 24%
inhibition of growth at 0.4 ppm (Cordana musae [3]; mixing partner alone): 0%
inhibition of growth at 2 ppm (Cordana musae [3]; mixing partner alone): 0%
inhibition of growth at 10 ppm (Cordana musae [3]; mixing partner alone): 0%
inhibition of growth at 0.08 ppm (Cordana musae [3]; single substance, 0.08 ppm): 0%
inhibition of growth at 0.4 ppm (Cordana musae [3]; single substance): 0%
inhibition of growth at 2 ppm (Cordana musae [3]; single substance): 0%
inhibition of growth at 10 ppm (Cordana musae [3]; single substance): 34%
inhibition of growth at 0.08 ppm (Cordana musae [4]; 0.08 ppm): 0%
inhibition of growth at 0.4 ppm (Cordana musae [4]; 0.4 ppm): 0%
inhibition of growth at 10 ppm (Cordana musae [4]; 10 ppm): 2%
inhibition of growth at 0.08 ppm ([5]; 0.08 ppm): 0%
inhibition of growth at 2 ppm ([5]; 2 ppm): 0%
inhibition of growth at 10 ppm ([5]; 10 ppm): 9%
inhibition of growth at 0.4 ppm (Botrytis cinerea [6]; alone, 0.4 ppm, read-out: Efficacy %): 0%
inhibition of growth at 0.08 ppm (Cercospora beticola [7]; Cercospora beticola, 0.08 ppm alone, read-out: Efficacy %): 10%
inhibition of growth at 0.4 ppm (Cercospora beticola [7]; Cercospora beticola, 0.4 ppm alone, read-out: Efficacy %): 0%
inhibition of growth at 2 ppm (Cercospora beticola [7]; Cercospora beticola, 2.0 ppm alone, read-out: Efficacy %): 4%
inhibition of growth at 10 ppm (Cercospora beticola [7]; Cercospora beticola, 10.0 ppm alone, read-out: Efficacy %): 34%
inhibition of growth at 0.08 ppm (Botrytis cinerea [8]; 0.08 ppm alone): 0%
inhibition of growth at 0.4 ppm (Botrytis cinerea [8]; 0.4 ppm alone): 0%
inhibition of growth at 0.08 ppm (Fusarium culmorum [9]; single active compound, 0.08 ppm): 0%
inhibition of growth at 0.4 ppm (Fusarium culmorum [9]; single active compound, 0.4 ppm): 2%
inhibition of growth at 10 ppm (Fusarium culmorum [9]; single active compound, 10 ppm): 8%
inhibition of growth at 0.4 ppm (Cercospora beticola [12]; 0.4 ppm): 0%
inhibition of growth at 2 ppm (Cercospora beticola [12]; 2 ppm): 0%
inhibition of growth at 10 ppm (Cercospora beticola [12]; 10 ppm): 4%
inhibition of growth at 0.08 ppm (Diaporthe citri [10]; Diaporthe citri, Table F10, 0.08 ppm alone, read-out: Efficacy): 52%
inhibition of growth at 0.4 ppm (Diaporthe citri [10]; Diaporthe citri, Table F10, 0.4 ppm alone, read-out: Efficacy): 6%
inhibition of growth at 2 ppm (Diaporthe citri [10]; Diaporthe citri, Table F10, 2.0 ppm alone, read-out: Efficacy): 10%
inhibition of growth at 10 ppm (Diaporthe citri [10]; Diaporthe citri, Table F10, 10.0 ppm alone, read-out: Efficacy): 20%
inhibition of growth at 0.4 ppm (Diaporthe citri [10]; Diaporthe citri, applied alone, 0.4 ppm, read-out: Efficacy): 15%
inhibition of growth at 10 ppm (Diaporthe citri [10]; Diaporthe citri, applied alone, 10.0 ppm, read-out: Efficacy): 41%
Efficacy (Diaporthe citri [10]; applied alone, 2.0 ppm): 0%
Efficacy (Fusarium culmorum [13]; 10.0 ppm): 0%
inhibition of growth at 0.08 ppm (Fusarium culmorum [13]; Fusarium culmorum, 0.08 ppm, read-out: Efficacy): 0%
inhibition of growth at 10 ppm (Fusarium culmorum [13]; Fusarium culmorum, 10.0 ppm, read-out: Efficacy): 0%
inhibition of growth at 0.08 ppm (Parastagonospora nodorum [14]; 0.08 ppm): 5%
inhibition of growth at 0.4 ppm (Parastagonospora nodorum [14]; 0.4 ppm): 4%
inhibition of growth at 2 ppm (Parastagonospora nodorum [14]; 2 ppm): 1%
inhibition of growth at 10 ppm (Parastagonospora nodorum [14]; 10 ppm): 33%
inhibition of growth at 0.08 ppm (Colletotrichum coccodes; 0.08 ppm): 0%
inhibition of growth at 0.4 ppm (Colletotrichum coccodes; 0.4 ppm): 0%
inhibition of growth at 2 ppm (Colletotrichum coccodes; 2 ppm): 48%
inhibition of growth at 0.08 ppm (Colletotrichum coccodes; single active compound at 0.08 ppm): 0%
inhibition of growth at 0.4 ppm (Colletotrichum coccodes; single active compound at 0.4 ppm): 0%
inhibition of growth at 2 ppm (Colletotrichum coccodes; single active compound at 2 ppm): 18%
inhibition of growth at 10 ppm (Colletotrichum coccodes; single active compound at 10 ppm): 28%
inhibition of growth at 10 ppm (Alternaria alternata; single compound, 10 ppm): 30%
